Assay [1] deals with T1, SUMO-activating enzyme (Homo sapiens, UniProt Q9UBT2). Kind of assay: inhibitors of in vitro SUMOylation cascade, primary screen, biochemical, HTRF, uHTS (AID 2006). Type of assay: protein-complex assay. In general terms: TR-FRET usually uses a lanthanide donor and a delayed reading to cut background.
A short description of another assay: cells. The format is functional.
The target of assay [2] is T2, Rac GTPase-activating protein 1 (Homo sapiens, UniProt Q9H0H5).
T2 sequence (Q9H0H5 whole entry): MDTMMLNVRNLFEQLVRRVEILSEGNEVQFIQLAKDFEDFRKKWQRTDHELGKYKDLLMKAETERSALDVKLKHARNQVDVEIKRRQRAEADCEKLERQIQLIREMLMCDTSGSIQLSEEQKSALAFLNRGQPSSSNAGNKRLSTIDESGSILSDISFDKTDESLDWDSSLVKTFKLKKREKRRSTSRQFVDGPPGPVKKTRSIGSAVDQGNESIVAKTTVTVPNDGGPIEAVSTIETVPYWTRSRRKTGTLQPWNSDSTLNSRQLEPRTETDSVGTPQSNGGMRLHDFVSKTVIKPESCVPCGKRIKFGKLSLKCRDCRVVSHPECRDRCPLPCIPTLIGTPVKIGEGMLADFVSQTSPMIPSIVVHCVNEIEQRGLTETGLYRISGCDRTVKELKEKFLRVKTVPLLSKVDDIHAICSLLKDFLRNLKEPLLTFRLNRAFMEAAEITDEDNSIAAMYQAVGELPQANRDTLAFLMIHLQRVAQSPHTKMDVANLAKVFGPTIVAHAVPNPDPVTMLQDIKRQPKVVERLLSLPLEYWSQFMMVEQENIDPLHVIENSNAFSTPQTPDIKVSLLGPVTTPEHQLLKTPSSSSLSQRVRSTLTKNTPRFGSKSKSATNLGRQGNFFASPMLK
Kind of assay: MgcRacGAP GTPase-activating activity inhibitors, confirmation, biochemical, ADP Hunter fluorescence, primary and confirmatory (AID 624330). Type of assay: functional.

Assay [3] deals with T1, SUMO-activating enzyme. Kind of assay: SUMOylation inhibitor hit validation, confirmation, SUMOylation inhibitor project, biochemical, AlphaScreen (AID 2018). The format is functional. (In general: In Alpha technology, singlet oxygen from a donor bead excites a nearby acceptor bead.)
The target in another assay is Genome polyprotein (dengue virus type 2, UniProt P29990). The experiment in a line: Dengue-2 NS5 methyltransferase inhibitors, primary screen, biochemical, confirmation dose response (AID 588689). The format is functional.
Genome polyprotein, sequence (P29990 2492-3391 limits assumed): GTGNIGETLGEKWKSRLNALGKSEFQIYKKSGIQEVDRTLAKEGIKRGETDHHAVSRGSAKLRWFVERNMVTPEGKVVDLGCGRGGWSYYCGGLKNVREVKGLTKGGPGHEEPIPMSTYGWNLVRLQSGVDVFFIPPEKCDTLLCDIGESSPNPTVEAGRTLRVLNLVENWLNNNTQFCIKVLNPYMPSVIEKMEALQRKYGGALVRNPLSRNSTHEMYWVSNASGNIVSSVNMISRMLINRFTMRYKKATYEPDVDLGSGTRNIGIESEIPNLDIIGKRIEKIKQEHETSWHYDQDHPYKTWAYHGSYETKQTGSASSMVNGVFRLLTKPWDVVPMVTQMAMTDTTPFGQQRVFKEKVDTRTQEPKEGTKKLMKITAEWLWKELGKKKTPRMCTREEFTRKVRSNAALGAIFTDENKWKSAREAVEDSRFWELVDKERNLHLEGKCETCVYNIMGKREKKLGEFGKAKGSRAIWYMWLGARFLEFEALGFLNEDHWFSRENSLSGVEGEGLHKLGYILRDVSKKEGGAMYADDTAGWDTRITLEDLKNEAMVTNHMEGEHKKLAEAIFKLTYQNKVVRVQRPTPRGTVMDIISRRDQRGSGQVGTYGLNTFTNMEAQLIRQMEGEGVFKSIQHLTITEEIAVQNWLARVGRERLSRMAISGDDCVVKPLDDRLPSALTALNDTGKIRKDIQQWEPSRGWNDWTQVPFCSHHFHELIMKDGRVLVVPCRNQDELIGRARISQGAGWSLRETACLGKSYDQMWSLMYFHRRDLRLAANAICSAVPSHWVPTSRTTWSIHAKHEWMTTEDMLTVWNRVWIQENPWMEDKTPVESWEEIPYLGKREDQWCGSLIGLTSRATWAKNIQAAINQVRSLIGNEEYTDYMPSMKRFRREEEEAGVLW
The next assay concerns the target T3, Protein RecA (Mycobacterium tuberculosis, UniProt P9WHJ3).
T3 sequence (P9WHJ3 whole entry): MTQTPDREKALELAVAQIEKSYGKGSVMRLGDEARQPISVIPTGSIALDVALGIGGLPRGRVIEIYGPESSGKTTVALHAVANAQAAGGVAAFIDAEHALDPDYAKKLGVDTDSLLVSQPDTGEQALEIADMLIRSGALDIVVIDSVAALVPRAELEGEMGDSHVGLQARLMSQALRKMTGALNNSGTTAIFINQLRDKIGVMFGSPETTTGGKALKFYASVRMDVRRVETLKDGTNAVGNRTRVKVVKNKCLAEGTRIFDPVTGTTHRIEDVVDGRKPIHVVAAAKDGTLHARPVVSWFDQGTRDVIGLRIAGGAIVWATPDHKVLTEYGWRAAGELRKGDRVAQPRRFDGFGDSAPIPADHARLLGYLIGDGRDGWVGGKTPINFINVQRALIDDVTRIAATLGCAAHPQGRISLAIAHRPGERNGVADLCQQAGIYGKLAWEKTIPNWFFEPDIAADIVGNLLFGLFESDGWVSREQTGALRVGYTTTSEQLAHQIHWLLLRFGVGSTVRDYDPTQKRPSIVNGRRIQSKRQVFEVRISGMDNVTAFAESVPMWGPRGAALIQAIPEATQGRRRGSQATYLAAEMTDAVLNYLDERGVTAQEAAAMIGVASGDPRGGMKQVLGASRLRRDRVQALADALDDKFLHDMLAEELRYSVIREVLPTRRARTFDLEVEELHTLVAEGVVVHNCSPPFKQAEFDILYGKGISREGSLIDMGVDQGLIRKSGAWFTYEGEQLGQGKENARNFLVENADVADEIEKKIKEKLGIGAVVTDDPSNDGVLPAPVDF
The experiment in a line: Fluorescence Cell-Free Homogeneous Dose Retest to Identify Inhibitors of RecA-Intein Splicing Activity. [Related pubchem assays (depositor defined):AID2097, AID2223, AID489010, AID492950]. The format is functional.

For assay [4], the target named is T4, Replicative DNA helicase DnaB (Mycobacterium tuberculosis, UniProt P9WMR3).
T4 sequence (P9WMR3 whole entry): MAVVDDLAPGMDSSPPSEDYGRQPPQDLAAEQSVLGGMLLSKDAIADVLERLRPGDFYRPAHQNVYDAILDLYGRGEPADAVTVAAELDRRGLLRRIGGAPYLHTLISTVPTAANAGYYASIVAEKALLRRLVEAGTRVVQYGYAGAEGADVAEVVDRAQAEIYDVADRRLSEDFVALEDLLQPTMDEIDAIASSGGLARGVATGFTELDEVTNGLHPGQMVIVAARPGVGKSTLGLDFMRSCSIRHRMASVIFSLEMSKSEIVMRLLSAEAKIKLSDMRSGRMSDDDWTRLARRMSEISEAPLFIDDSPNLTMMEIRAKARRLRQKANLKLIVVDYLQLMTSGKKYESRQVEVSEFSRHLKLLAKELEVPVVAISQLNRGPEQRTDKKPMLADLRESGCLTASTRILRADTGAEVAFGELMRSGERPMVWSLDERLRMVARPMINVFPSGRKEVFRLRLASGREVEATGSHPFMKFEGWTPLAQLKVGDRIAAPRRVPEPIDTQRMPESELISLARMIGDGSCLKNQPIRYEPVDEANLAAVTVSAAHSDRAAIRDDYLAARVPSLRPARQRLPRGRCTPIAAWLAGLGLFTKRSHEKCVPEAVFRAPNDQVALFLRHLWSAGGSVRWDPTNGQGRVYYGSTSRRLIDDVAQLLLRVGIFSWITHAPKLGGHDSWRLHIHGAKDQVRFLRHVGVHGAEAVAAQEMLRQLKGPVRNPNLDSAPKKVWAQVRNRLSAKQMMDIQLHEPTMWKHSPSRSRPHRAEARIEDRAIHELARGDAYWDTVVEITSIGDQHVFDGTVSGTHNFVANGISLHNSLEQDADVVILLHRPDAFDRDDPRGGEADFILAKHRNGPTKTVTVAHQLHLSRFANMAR
The experiment in a line: DnaB intein splicing inhibitors, dose response, biochemical, cell-free fluorescence (AID 449749). The format is functional.

A further assay has as its system A-375. Kind of assay: MITF: Counter assay: A375 proliferation Measured in Cell-Based System Using Plate Reader - 2084-03_Inhibitor_Dose_DryPowder_Activity. [Related pubchem assays (depositor defined):AID488944]. Type of assay: functional. The note with it: Homo sapiens.
The target of assay [5] is T5, Microphthalmia-associated transcription factor (Homo sapiens, UniProt O75030).
T5 sequence (O75030 whole entry): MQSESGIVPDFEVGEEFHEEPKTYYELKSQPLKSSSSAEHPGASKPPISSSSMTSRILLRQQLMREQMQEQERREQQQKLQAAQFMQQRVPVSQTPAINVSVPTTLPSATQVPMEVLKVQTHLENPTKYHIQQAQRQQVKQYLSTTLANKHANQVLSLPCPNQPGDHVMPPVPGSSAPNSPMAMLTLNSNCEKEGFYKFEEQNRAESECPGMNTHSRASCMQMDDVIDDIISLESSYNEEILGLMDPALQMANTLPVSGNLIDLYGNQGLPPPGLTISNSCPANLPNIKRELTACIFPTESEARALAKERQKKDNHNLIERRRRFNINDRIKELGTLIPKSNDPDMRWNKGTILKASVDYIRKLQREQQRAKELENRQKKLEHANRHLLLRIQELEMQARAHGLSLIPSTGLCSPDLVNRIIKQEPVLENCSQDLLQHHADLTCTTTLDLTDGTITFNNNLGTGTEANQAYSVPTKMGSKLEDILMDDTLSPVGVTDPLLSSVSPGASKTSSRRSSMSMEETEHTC
The experiment in a line: TRPM1 promoter luciferase signal decrease, dose response, MITF inhibitor project, cell-based, SK-MEL-5, cherry-picked, set 3 (AID 493073).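 Also: SK-MEL-5 melanoma cells with luciferase driven by the MITF target TRPM1 promoter.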 Type of assay: functional.

Assay [6] has as its target Glucose-6-phosphate 1-dehydrogenase (Homo sapiens, UniProt P11413). Kind of assay: human G6PD enzyme inhibitors, dose response, selectivity assay for P. falciparum G6PD inhibitor project, biochemical, fluorescence (AID 504792). The format is functional.
Assay [7] addresses T6, Tyrosine-protein phosphatase non-receptor type 22 (Homo sapiens, UniProt Q9Y2R2).
T6 sequence (Q9Y2R2 whole entry): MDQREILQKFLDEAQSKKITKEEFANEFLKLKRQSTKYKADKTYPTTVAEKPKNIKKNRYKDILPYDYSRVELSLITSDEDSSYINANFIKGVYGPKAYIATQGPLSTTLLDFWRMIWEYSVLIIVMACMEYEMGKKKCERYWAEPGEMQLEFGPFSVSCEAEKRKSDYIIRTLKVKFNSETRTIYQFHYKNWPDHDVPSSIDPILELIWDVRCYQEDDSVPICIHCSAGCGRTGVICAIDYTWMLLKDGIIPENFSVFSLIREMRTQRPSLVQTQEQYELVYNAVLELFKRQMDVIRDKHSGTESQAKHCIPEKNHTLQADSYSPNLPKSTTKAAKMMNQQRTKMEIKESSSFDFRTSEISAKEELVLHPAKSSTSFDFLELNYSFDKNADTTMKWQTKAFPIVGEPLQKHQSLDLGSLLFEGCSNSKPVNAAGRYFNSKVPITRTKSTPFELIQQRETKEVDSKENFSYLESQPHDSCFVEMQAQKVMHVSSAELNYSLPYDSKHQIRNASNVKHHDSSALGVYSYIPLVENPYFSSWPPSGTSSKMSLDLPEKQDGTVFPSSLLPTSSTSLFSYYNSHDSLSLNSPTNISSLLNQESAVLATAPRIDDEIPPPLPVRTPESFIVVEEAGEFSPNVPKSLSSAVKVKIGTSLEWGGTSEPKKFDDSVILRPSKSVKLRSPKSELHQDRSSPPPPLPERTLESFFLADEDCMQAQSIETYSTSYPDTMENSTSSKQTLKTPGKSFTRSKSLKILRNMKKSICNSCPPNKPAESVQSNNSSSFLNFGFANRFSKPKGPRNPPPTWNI
Type of assay: functional.

Assay [8] concerns the target T6, Tyrosine-protein phosphatase non-receptor type 22. The format is functional. The source holds these as a separate data set.
The target of assay [9] is T7, Tyrosine-protein phosphatase non-receptor type 7 (Homo sapiens, UniProt P35236).
T7 sequence (P35236 whole entry): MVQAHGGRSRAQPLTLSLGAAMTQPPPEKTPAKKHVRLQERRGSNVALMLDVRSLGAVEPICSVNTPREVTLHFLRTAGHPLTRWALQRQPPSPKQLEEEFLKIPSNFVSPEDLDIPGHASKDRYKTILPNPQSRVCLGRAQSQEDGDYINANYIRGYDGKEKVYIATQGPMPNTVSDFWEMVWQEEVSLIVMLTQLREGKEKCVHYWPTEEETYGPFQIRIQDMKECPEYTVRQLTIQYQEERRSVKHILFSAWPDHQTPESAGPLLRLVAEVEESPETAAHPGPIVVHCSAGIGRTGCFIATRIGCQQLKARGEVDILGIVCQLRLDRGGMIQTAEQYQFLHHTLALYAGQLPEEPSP
Type of assay: functional.

The target of assay [10] is T8, Corticotropin-releasing factor receptor 2/Corticotropin-releasing factor-binding protein (Homo sapiens, UniProt P24387+Q13324).
T8 sequence (Q13324 whole entry): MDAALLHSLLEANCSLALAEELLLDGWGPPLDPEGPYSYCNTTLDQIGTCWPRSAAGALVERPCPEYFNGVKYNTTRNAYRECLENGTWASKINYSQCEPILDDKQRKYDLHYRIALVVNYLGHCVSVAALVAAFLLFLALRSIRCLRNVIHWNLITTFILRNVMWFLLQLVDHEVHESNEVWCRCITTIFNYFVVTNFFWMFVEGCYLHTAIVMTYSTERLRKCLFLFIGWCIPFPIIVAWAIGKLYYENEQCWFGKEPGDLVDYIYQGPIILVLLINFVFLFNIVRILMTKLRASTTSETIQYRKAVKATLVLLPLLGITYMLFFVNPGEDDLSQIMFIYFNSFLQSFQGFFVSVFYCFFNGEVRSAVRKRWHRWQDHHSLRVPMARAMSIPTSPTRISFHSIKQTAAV
T8 sequence (P24387 whole entry): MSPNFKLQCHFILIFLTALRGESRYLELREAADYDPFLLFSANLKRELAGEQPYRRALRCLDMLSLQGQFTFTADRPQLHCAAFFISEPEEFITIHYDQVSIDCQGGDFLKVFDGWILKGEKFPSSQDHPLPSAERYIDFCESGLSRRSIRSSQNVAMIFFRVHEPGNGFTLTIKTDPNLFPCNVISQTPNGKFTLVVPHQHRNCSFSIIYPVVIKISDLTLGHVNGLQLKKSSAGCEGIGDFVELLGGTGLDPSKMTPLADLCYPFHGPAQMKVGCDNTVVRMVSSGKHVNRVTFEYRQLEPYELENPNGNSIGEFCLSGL
Kind of assay: activators of CRF receptor 2 with binding protein – uHTS hits, confirmation (AID 602473). Type of assay: functional. The note with it: read-out: EC50_Mean.

The source made the active and inactive calls.

The values that follow come from ChEMBL document CHEMBL1201862, “PubChem BioAssay data set” (2004).

For orientation: IC50 means the concentration that gives 50% inhibition. As usually defined, the AC50 is the concentration at which the activity in the assay is half-maximal.

T1 sequence (Q9UBE0 whole entry): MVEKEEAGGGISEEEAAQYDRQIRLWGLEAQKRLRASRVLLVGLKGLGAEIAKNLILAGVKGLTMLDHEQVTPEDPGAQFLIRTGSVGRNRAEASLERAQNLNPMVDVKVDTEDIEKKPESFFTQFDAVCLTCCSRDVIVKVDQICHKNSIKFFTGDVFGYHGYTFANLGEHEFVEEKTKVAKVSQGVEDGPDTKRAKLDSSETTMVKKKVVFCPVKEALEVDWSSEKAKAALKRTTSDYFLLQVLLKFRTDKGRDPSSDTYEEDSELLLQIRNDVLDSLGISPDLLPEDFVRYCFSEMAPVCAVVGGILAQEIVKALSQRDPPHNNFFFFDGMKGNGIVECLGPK
T1 sequence (Q9UBT2 whole entry): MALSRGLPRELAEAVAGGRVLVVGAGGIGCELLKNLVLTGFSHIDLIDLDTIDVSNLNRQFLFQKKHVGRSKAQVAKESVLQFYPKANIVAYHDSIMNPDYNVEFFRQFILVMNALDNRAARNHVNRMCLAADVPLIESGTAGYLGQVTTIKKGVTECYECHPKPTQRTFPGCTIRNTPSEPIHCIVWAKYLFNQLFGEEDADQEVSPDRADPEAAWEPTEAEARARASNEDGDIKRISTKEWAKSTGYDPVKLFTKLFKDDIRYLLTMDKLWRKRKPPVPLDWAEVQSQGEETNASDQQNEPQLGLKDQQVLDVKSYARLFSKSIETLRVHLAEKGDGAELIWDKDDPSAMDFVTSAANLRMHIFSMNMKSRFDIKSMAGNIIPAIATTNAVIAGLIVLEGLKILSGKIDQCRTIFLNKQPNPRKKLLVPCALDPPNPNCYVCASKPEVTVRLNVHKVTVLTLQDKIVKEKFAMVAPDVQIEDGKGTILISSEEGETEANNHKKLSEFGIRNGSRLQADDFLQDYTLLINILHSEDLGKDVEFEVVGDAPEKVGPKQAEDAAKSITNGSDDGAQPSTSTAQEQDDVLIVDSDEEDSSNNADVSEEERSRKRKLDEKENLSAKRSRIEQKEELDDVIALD
Glucose-6-phosphate 1-dehydrogenase, sequence (P11413 whole entry): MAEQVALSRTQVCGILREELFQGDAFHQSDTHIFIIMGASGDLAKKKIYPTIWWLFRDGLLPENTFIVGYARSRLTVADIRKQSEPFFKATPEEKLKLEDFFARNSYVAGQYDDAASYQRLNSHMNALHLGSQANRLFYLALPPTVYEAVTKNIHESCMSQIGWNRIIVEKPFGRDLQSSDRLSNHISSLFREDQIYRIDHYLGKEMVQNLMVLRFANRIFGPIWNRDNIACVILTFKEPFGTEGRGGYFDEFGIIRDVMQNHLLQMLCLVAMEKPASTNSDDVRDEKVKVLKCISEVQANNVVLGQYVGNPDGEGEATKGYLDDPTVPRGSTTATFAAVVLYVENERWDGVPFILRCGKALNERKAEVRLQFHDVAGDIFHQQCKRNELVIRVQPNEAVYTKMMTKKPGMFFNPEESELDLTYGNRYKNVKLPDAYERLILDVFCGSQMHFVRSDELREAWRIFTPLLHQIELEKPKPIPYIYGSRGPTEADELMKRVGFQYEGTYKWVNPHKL

For the compound `CC1=NN(c2ccc(C(=O)O)cc2)C(=O)/C1=C\c1ccc(OC(=O)c2cccs2)cc1`, the IC50 at SUMO-activating enzyme [1] is 57.7 µM (active); in “cells” it was 15.1 µM (active); in assay [2] it was 185 µM (active); at SUMO-activating enzyme [3], 7.86 µM (active); on Genome polyprotein, 15.6 µM (active). The EC50 on Protein RecA was 1.9 µM (active). In [4], the AC50 was 2.08 µM (active).
For the compound `CN(C)c1ccc(/C=C(\C#N)c2ccccn2)cc1`, the AC50 with A-375 is 45.2 µM (active); in assay [5], 6.32 µM (active).
Turning to `N#Cc1ccc(N=c2ssnc2Cl)cc1`, in assay [6], the IC50 was 48.3 µM (inactive).
In the case of `CCOc1ccccc1NC(=O)CSc1nnc(Cc2cccn2C)n1-c1ccc(F)cc1`, the IC50 in assay [7], in assay [8] and in [9] was > 79.4 µM (inactive) in each case.
As to `CCOC(=O)/C=c1/s/c(=C/c2ccc3cc(OC)ccc3c2)c(=O)n1CC(=O)NCC1CCCO1` (stereo unspecified), the values for the AC50 (in the assay on A-375; in [5]) were 29.7 µM (active) and 6.79 µM (active), respectively. Besides, in assay [10], the EC50 is 7.75 µM (active).
